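48-hour exposure; five concentrations; linearly interpolated endpoints. GI50 = concentration required for 50% inhibition of growth. At the TGI there is no net growth.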
Experiments:
Test in all cases: DTP human tumour cell line panel, 48 h
HOP-62 NSCLC = test system: HOP-62 NSCLC
T-47D breast = test system: T-47D breast
786-0 renal = test system: 786-0 renal
SF-295 CNS = test system: SF-295 CNS
MCF7 breast = test system: MCF7 breast
SR leukemia = test system: SR leukemia
UO-31 renal = test system: UO-31 renal
BT-549 breast = test system: BT-549 breast
CCRF-CEM leukemia = test system: CCRF-CEM leukemia
SF-539 CNS = test system: SF-539 CNS
RXF 393 renal = test system: RXF 393 renal
A549 NSCLC = test system: A549 NSCLC
U251 CNS = test system: U251 CNS
UACC-62 melanoma = test system: UACC-62 melanoma
OVCAR-4 ovarian = test system: OVCAR-4 ovarian
IGROV1 ovarian = test system: IGROV1 ovarian
HOP-92 NSCLC = test system: HOP-92 NSCLC
NCI-H226 lung = test system: NCI-H226 lung
TK-10 renal = test system: TK-10 renal
OVCAR-8 ovarian = test system: OVCAR-8 ovarian
SK-OV-3 ovarian = test system: SK-OV-3 ovarian
UACC-257 melanoma = test system: UACC-257 melanoma
SF-268 CNS = test system: SF-268 CNS
HCT-15 colon = test system: HCT-15 colon
PC-3 prostate = test system: PC-3 prostate
HT29 colon = test system: HT29 colon
NCI/ADR-RES ovarian = test system: NCI/ADR-RES ovarian
MOLT-4 leukemia = test system: MOLT-4 leukemia
OVCAR-5 ovarian = test system: OVCAR-5 ovarian
SNB-75 CNS = test system: SNB-75 CNS
NCI-H522 lung = test system: NCI-H522 lung
CAKI-1 renal = test system: CAKI-1 renal
K-562 leukemia = test system: K-562 leukemia
SK-MEL-5 melanoma = test system: SK-MEL-5 melanoma
SK-MEL-2 melanoma = test system: SK-MEL-2 melanoma
KM12 colon = test system: KM12 colon
A498 renal = test system: A498 renal
LOX IMVI melanoma = test system: LOX IMVI melanoma
ACHN renal = test system: ACHN renal
SK-MEL-28 melanoma = test system: SK-MEL-28 melanoma
DU-145 prostate = test system: DU-145 prostate
SNB-19 CNS = test system: SNB-19 CNS
MDA-MB-435 = test system: MDA-MB-435
MDA-MB-231 breast = test system: MDA-MB-231 breast
SN12C renal = test system: SN12C renal
HS 578T breast = test system: HS 578T breast
NCI-H460 lung = test system: NCI-H460 lung
HCT-116 colon = test system: HCT-116 colon
HCC-2998 colon = test system: HCC-2998 colon
OVCAR-3 ovarian = test system: OVCAR-3 ovarian
COLO 205 colon = test system: COLO 205 colon
SW-620 colon = test system: SW-620 colon
MALME-3M melanoma = test system: MALME-3M melanoma
HL-60(TB) leukemia = test system: HL-60(TB) leukemia
NCI-H23 lung = test system: NCI-H23 lung
RPMI-8226 leukemia = test system: RPMI-8226 leukemia

Work on O=c1c2c([nH]c3ccccc13)CCCC2 yielded a GI50 (HOP-62 NSCLC) of over 100 µM, a TGI (HOP-62 NSCLC) of over 100 µM and a GI50 (T-47D breast) of over 100 µM. For the same molecule, the TGI (T-47D breast) was over 100 µM, the GI50 (786-0 renal) was over 100 µM and the TGI (786-0 renal) was over 100 µM. For the same molecule, the GI50 (SF-295 CNS) was over 100 µM, the TGI (SF-295 CNS) was over 100 µM and the GI50 (MCF7 breast) was over 100 µM. For the same molecule, the TGI (MCF7 breast) was over 100 µM, the GI50 (SR leukemia) was over 100 µM and the TGI (SR leukemia) was over 100 µM. It also gave a GI50 (UO-31 renal) of 49.7 µM, a TGI (UO-31 renal) of over 100 µM and a GI50 (BT-549 breast) of over 100 µM. It also gave a TGI (BT-549 breast) of over 100 µM, a GI50 (CCRF-CEM leukemia) of over 100 µM and a TGI (CCRF-CEM leukemia) of over 100 µM. The GI50 (SF-539 CNS) was over 100 µM, the TGI (SF-539 CNS) was over 100 µM and the GI50 (RXF 393 renal) was over 100 µM. The TGI (RXF 393 renal) was over 100 µM, the GI50 (A549 NSCLC) was over 100 µM and the TGI (A549 NSCLC) was over 100 µM. It also gave a GI50 (U251 CNS) of over 100 µM, a TGI (U251 CNS) of over 100 µM and a GI50 (UACC-62 melanoma) of over 100 µM. For the same molecule, the TGI (UACC-62 melanoma) was over 100 µM, the GI50 (OVCAR-4 ovarian) was 37 µM and the TGI (OVCAR-4 ovarian) was over 100 µM. The GI50 (IGROV1 ovarian) was over 100 µM, the TGI (IGROV1 ovarian) was over 100 µM and the GI50 (HOP-92 NSCLC) was 78.4 µM. It also gave a TGI (HOP-92 NSCLC) of over 100 µM, a GI50 (NCI-H226 lung) of over 100 µM and a TGI (NCI-H226 lung) of over 100 µM. It also gave a GI50 (TK-10 renal) of over 100 µM, a TGI (TK-10 renal) of over 100 µM and a GI50 (OVCAR-8 ovarian) of over 100 µM. For the same molecule, the TGI (OVCAR-8 ovarian) was over 100 µM, the GI50 (SK-OV-3 ovarian) was over 100 µM and the TGI (SK-OV-3 ovarian) was over 100 µM. The GI50 (UACC-257 melanoma) was over 100 µM, the TGI (UACC-257 melanoma) was over 100 µM and the GI50 (SF-268 CNS) was over 100 µM. The TGI (SF-268 CNS) was over 100 µM, the GI50 (HCT-15 colon) was over 100 µM and the TGI (HCT-15 colon) was over 100 µM. For the same molecule, the GI50 (PC-3 prostate) was over 100 µM, the TGI (PC-3 prostate) was over 100 µM and the GI50 (HT29 colon) was over 100 µM. For the same molecule, the TGI (HT29 colon) was over 100 µM, the GI50 (NCI/ADR-RES ovarian) was over 100 µM and the TGI (NCI/ADR-RES ovarian) was over 100 µM. It also gave a GI50 (MOLT-4 leukemia) of over 100 µM, a TGI (MOLT-4 leukemia) of over 100 µM and a GI50 (OVCAR-5 ovarian) of over 100 µM. The TGI (OVCAR-5 ovarian) was over 100 µM, the GI50 (SNB-75 CNS) was over 100 µM and the TGI (SNB-75 CNS) was over 100 µM. The GI50 (NCI-H522 lung) was over 100 µM, the TGI (NCI-H522 lung) was over 100 µM and the GI50 (CAKI-1 renal) was over 100 µM. It also gave a TGI (CAKI-1 renal) of over 100 µM, a GI50 (K-562 leukemia) of over 100 µM and a TGI (K-562 leukemia) of over 100 µM. The GI50 (SK-MEL-5 melanoma) was 45.3 µM, the TGI (SK-MEL-5 melanoma) was over 100 µM and the GI50 (SK-MEL-2 melanoma) was 60.4 µM. The TGI (SK-MEL-2 melanoma) was over 100 µM, the GI50 (KM12 colon) was over 100 µM and the TGI (KM12 colon) was over 100 µM. It also gave a GI50 (A498 renal) of 1.74 µM, a TGI (A498 renal) of 55.8 µM and a GI50 (LOX IMVI melanoma) of over 100 µM. The TGI (LOX IMVI melanoma) was over 100 µM, the GI50 (ACHN renal) was over 100 µM and the TGI (ACHN renal) was over 100 µM. It also gave a GI50 (SK-MEL-28 melanoma) of over 100 µM, a TGI (SK-MEL-28 melanoma) of over 100 µM and a GI50 (DU-145 prostate) of over 100 µM. It also gave a TGI (DU-145 prostate) of over 100 µM, a GI50 (SNB-19 CNS) of over 100 µM and a TGI (SNB-19 CNS) of over 100 µM. It also gave a GI50 (MDA-MB-435) of over 100 µM, a TGI (MDA-MB-435) of over 100 µM and a GI50 (MDA-MB-231 breast) of over 100 µM. For the same molecule, the TGI (MDA-MB-231 breast) was over 100 µM, the GI50 (SN12C renal) was over 100 µM and the TGI (SN12C renal) was over 100 µM. For the same molecule, the GI50 (HS 578T breast) was over 100 µM, the TGI (HS 578T breast) was over 100 µM and the GI50 (NCI-H460 lung) was over 100 µM. For the same molecule, the TGI (NCI-H460 lung) was over 100 µM, the GI50 (HCT-116 colon) was over 100 µM and the TGI (HCT-116 colon) was over 100 µM. It also gave a GI50 (HCC-2998 colon) of over 100 µM, a TGI (HCC-2998 colon) of over 100 µM and a GI50 (OVCAR-3 ovarian) of over 100 µM. The TGI (OVCAR-3 ovarian) was over 100 µM, the GI50 (COLO 205 colon) was over 100 µM and the TGI (COLO 205 colon) was over 100 µM. The GI50 (SW-620 colon) was over 100 µM, the TGI (SW-620 colon) was over 100 µM and the GI50 (MALME-3M melanoma) was over 100 µM. It also gave a TGI (MALME-3M melanoma) of over 100 µM, a GI50 (HL-60(TB) leukemia) of over 100 µM and a TGI (HL-60(TB) leukemia) of over 100 µM. The GI50 (NCI-H23 lung) was over 100 µM, the TGI (NCI-H23 lung) was over 100 µM and the GI50 (RPMI-8226 leukemia) was 81.5 µM. For the same molecule, the TGI (RPMI-8226 leukemia) was over 100 µM.

Reference: PubChem BioAssay (NCI)
